ChEMBL document CHEMBL1201862, “PubChem BioAssay data set” (2004)
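Dose response: 5 concentrations. Exposure: 48 h. Format: 96-well plates. Endpoint: linear interpolation; highest concentration if not reached. At the GI50, growth is halved.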 Activity calls are given as the source filed them. Rule as the data show it: active = GI50 up to about 1.1 µM and inactive = higher.

Columns and labels:
Assay in all cases: growth of human tumour cells (NCI), 48 h
[1] = test system: HOP-62
[2] = test system: SK-OV-3
[3] = test system: ACHN
[4] = test system: COLO 205
[5] = test system: UACC-62
[6] = test system: SK-MEL-5
[7] = test system: CCRF-CEM
[8] = test system: RPMI-8226
[9] = test system: OVCAR-3
[10] = test system: U-251
[11] = test system: MDA-MB-231
[12] = test system: NCI-H522
[13] = test system: UACC-257
[14] = test system: DU-145
[15] = test system: MDA-N
[16] = test system: SF-268
[17] = test system: Malme-3M
[18] = test system: SF-295
[19] = test system: UO-31
[20] = test system: HCT-15
[21] = test system: HL-60
[22] = test system: LOX IMVI
[23] = test system: K562
[24] = test system: T47D
[25] = test system: A549
[26] = test system: HT-29
[27] = test system: SNB-19
[28] = test system: HCT-116
[29] = test system: EKVX
[30] = test system: HOP-92
[31] = test system: MDA-MB-435
[32] = test system: TK-10
[33] = test system: NCI-H226
[34] = test system: OVCAR-5
[35] = test system: A498
[36] = test system: RXF 393
[37] = test system: SN12C
[38] = test system: Hs-578T
[39] = test system: BT-549
[40] = test system: OVCAR-4
[41] = test system: KM12
[42] = test system: PC-3
[43] = test system: SR
[44] = test system: 786-0
[45] = test system: CAKI-1
[46] = test system: IGROV-1
[47] = test system: NCI-H23
[48] = test system: MOLT-4
[49] = test system: SNB-75
[50] = test system: M14
[51] = test system: OVCAR-8
[52] = test system: SW-620
[53] = test system: SK-MEL-2
[54] = test system: NCI/ADR-RES
[55] = test system: SK-MEL-28
[56] = test system: MCF7
[57] = test system: NCI-H460
[58] = test system: SF-539
[59] = test system: HCC 2998

CC(C)(C)/C(O)=C\c1nc2cc(C(F)(F)F)ccc2[nH]c1=O
GI50 [1]: > 100 µM (inactive) | GI50 [2]: > 100 µM (inactive) | GI50 [3]: > 100 µM (inactive) | GI50 [4]: > 100 µM (inactive) | GI50 [5]: > 100 µM (inactive) | GI50 [6]: > 100 µM (inactive) | GI50 [7]: 13.3 µM (inactive) | GI50 [8]: > 100 µM (inactive) | GI50 [9]: > 100 µM (inactive) | GI50 [10]: > 100 µM (inactive) | GI50 [11]: > 100 µM (inactive) | GI50 [12]: > 100 µM (inactive) | GI50 [13]: > 100 µM (inactive) | GI50 [14]: > 100 µM (inactive) | GI50 [15]: > 100 µM (inactive) | GI50 [16]: > 100 µM (inactive) | GI50 [17]: > 100 µM (inactive) | GI50 [18]: > 100 µM (inactive) | GI50 [19]: > 100 µM (inactive) | GI50 [20]: > 100 µM | GI50 [21]: 0.53 µM (active) | GI50 [22]: > 100 µM (inactive) | GI50 [23]: 27.9 µM (inactive) | GI50 [24]: > 100 µM (inactive) | GI50 [25]: > 100 µM (inactive) | GI50 [26]: 47.5 µM (inactive) | GI50 [27]: > 100 µM (inactive) | GI50 [28]: > 100 µM (inactive) | GI50 [29]: > 100 µM (inactive) | GI50 [30]: > 100 µM (inactive) | GI50 [31]: > 100 µM (inactive) | GI50 [32]: > 100 µM (inactive) | GI50 [33]: > 100 µM (inactive) | GI50 [34]: > 100 µM (inactive) | GI50 [35]: > 100 µM (inactive) | GI50 [36]: > 100 µM (inactive) | GI50 [37]: > 100 µM (inactive) | GI50 [38]: > 100 µM (inactive) | GI50 [39]: > 100 µM (inactive) | GI50 [40]: > 100 µM (inactive) | GI50 [41]: > 100 µM (inactive) | GI50 [42]: > 100 µM (inactive) | GI50 [43]: > 10 µM (inactive) | GI50 [44]: > 100 µM (inactive) | GI50 [45]: > 100 µM (inactive) | GI50 [46]: > 100 µM (inactive) | GI50 [47]: > 100 µM (inactive) | GI50 [48]: > 10 µM (inactive) | GI50 [49]: > 100 µM (inactive) | GI50 [50]: > 100 µM (inactive) | GI50 [51]: > 100 µM (inactive) | GI50 [52]: > 100 µM (inactive) | GI50 [53]: > 100 µM (inactive) | GI50 [54]: > 100 µM (inactive) | GI50 [55]: > 100 µM (inactive)

Cc1ccc(S(=O)(=O)NC(=O)NC(CCCCN)C(=O)O)cc1 (configuration not stated)
GI50 [1]: > 100 µM (inactive) | GI50 [2]: > 100 µM (inactive) | GI50 [3]: > 100 µM (inactive) | GI50 [4]: > 100 µM (inactive) | GI50 [5]: > 100 µM (inactive) | GI50 [6]: > 100 µM (inactive) | GI50 [7]: > 100 µM (inactive) | GI50 [8]: > 100 µM (inactive) | GI50 [10]: > 100 µM (inactive) | GI50 [11]: > 100 µM (inactive) | GI50 [12]: > 100 µM (inactive) | GI50 [13]: > 100 µM (inactive) | GI50 [14]: > 100 µM (inactive) | GI50 [15]: > 100 µM (inactive) | GI50 [16]: > 100 µM (inactive) | GI50 [17]: > 100 µM (inactive) | GI50 [18]: > 100 µM (inactive) | GI50 [19]: > 100 µM (inactive) | GI50 [56]: > 100 µM (inactive) | GI50 [20]: > 100 µM | GI50 [21]: > 100 µM (inactive) | GI50 [22]: > 100 µM (inactive) | GI50 [23]: > 100 µM (inactive) | GI50 [24]: > 100 µM (inactive) | GI50 [25]: > 100 µM (inactive) | GI50 [27]: > 100 µM (inactive) | GI50 [28]: > 100 µM (inactive) | GI50 [30]: 70 µM (inactive) | GI50 [32]: > 100 µM (inactive) | GI50 [36]: > 100 µM (inactive) | GI50 [37]: > 100 µM (inactive) | GI50 [38]: > 100 µM (inactive) | GI50 [39]: > 100 µM (inactive) | GI50 [40]: > 100 µM (inactive) | GI50 [41]: > 100 µM (inactive) | GI50 [42]: > 100 µM (inactive) | GI50 [43]: > 100 µM (inactive) | GI50 [44]: > 100 µM (inactive) | GI50 [57]: > 100 µM (inactive) | GI50 [46]: > 100 µM (inactive) | GI50 [47]: > 100 µM (inactive) | GI50 [48]: > 100 µM (inactive) | GI50 [49]: > 100 µM (inactive) | GI50 [58]: > 100 µM (inactive) | GI50 [50]: > 100 µM (inactive) | GI50 [51]: > 100 µM (inactive) | GI50 [52]: > 100 µM (inactive) | GI50 [53]: > 100 µM (inactive) | GI50 [54]: > 100 µM (inactive) | GI50 [55]: > 100 µM (inactive)

C=C(C)CNCCN
GI50 [1]: > 100 µM (inactive) | GI50 [3]: > 100 µM (inactive) | GI50 [5]: > 100 µM (inactive) | GI50 [6]: > 100 µM (inactive) | GI50 [7]: > 100 µM (inactive) | GI50 [9]: > 100 µM (inactive) | GI50 [10]: > 100 µM (inactive) | GI50 [11]: > 100 µM (inactive) | GI50 [12]: > 100 µM (inactive) | GI50 [13]: > 100 µM (inactive) | GI50 [14]: > 100 µM (inactive) | GI50 [15]: > 100 µM (inactive) | GI50 [16]: > 100 µM (inactive) | GI50 [17]: > 100 µM (inactive) | GI50 [18]: > 100 µM (inactive) | GI50 [19]: > 100 µM (inactive) | GI50 [20]: > 100 µM | GI50 [21]: > 100 µM (inactive) | GI50 [22]: > 100 µM (inactive) | GI50 [23]: > 100 µM (inactive) | GI50 [24]: > 100 µM (inactive) | GI50 [25]: > 100 µM (inactive) | GI50 [26]: > 100 µM (inactive) | GI50 [27]: > 100 µM (inactive) | GI50 [28]: > 100 µM (inactive) | GI50 [29]: > 100 µM (inactive) | GI50 [30]: > 100 µM (inactive) | GI50 [31]: > 100 µM (inactive) | GI50 [32]: > 100 µM (inactive) | GI50 [33]: > 100 µM (inactive) | GI50 [34]: > 100 µM (inactive) | GI50 [35]: > 100 µM (inactive) | GI50 [36]: > 100 µM (inactive) | GI50 [37]: > 100 µM (inactive) | GI50 [38]: > 100 µM (inactive) | GI50 [39]: > 100 µM (inactive) | GI50 [40]: > 100 µM (inactive) | GI50 [41]: > 100 µM (inactive) | GI50 [42]: > 100 µM (inactive) | GI50 [43]: > 100 µM (inactive) | GI50 [44]: > 100 µM (inactive) | GI50 [57]: > 100 µM (inactive) | GI50 [45]: > 100 µM (inactive) | GI50 [46]: > 100 µM (inactive) | GI50 [47]: > 100 µM (inactive) | GI50 [48]: > 100 µM (inactive) | GI50 [50]: > 100 µM (inactive) | GI50 [51]: > 100 µM (inactive) | GI50 [52]: > 100 µM (inactive) | GI50 [53]: > 100 µM (inactive) | GI50 [54]: > 100 µM (inactive) | GI50 [55]: > 100 µM (inactive)

S=C1NNC(=S)NN1
GI50 [1]: 0.292 µM (active) | GI50 [2]: > 1 µM (active) | GI50 [3]: 0.582 µM (active) | GI50 [4]: > 1 µM (active) | GI50 [5]: 0.296 µM (active) | GI50 [6]: 0.887 µM (active) | GI50 [7]: 0.342 µM (active) | GI50 [8]: 0.288 µM (active) | GI50 [9]: > 1 µM (active) | GI50 [10]: 0.583 µM (active) | GI50 [11]: > 1 µM (active) | GI50 [12]: 0.432 µM (active) | GI50 [13]: > 1 µM (active) | GI50 [14]: 0.316 µM (active) | GI50 [15]: > 1 µM (active) | GI50 [16]: 0.387 µM (active) | GI50 [17]: 0.594 µM (active) | GI50 [18]: 0.219 µM (active) | GI50 [19]: > 1 µM (active) | GI50 [56]: 0.328 µM (active) | GI50 [20]: > 1 µM | GI50 [21]: > 1 µM (active) | GI50 [22]: 0.18 µM (active) | GI50 [23]: 0.178 µM (active) | GI50 [24]: 0.951 µM (active) | GI50 [25]: > 1 µM (active) | GI50 [26]: 0.23 µM (active) | GI50 [27]: > 1 µM (active) | GI50 [59]: > 1 µM (active) | GI50 [28]: 0.23 µM (active) | GI50 [29]: > 1 µM (active) | GI50 [30]: > 1 µM (active) | GI50 [32]: > 1 µM (active) | GI50 [33]: > 1 µM (active) | GI50 [35]: > 1 µM (active) | GI50 [37]: 0.198 µM (active) | GI50 [38]: 0.697 µM (active) | GI50 [39]: 0.522 µM (active) | GI50 [40]: > 1 µM (active) | GI50 [41]: > 1 µM (active) | GI50 [42]: > 1 µM (active) | GI50 [43]: 0.239 µM (active) | GI50 [44]: > 1 µM (active) | GI50 [57]: > 1 µM (active) | GI50 [45]: 0.225 µM (active) | GI50 [46]: 0.436 µM (active) | GI50 [47]: 0.251 µM (active) | GI50 [48]: 0.258 µM (active) | GI50 [58]: > 1 µM (active) | GI50 [50]: 0.533 µM (active) | GI50 [51]: > 1 µM (active) | GI50 [52]: 0.218 µM (active) | GI50 [53]: > 1 µM (active) | GI50 [54]: > 1 µM (active) | GI50 [55]: > 1 µM (active)
